# Measured values from ChEMBL document CHEMBL3425506, “Synthesis, antimycobacterial evaluation and pharmacophore modeling of analogues of the natural product formononetin” (2015).
# Tested on: Mycobacterium tuberculosis
# Experiment: Antimycobacterial activity against Mycobacterium tuberculosis H37Rv ATCC 27294 assessed as inhibition of microbial growth at 10 uM after 5 to 8 days by MABA method
# Assay type: functional
# Conditions: read-out: GI
row,Structure (SMILES),inhibition of growth at 10 µM
1,COc1ccc(-c2coc3cc(O)ccc3c2=O)cc1 [FORMONONETIN],88%
2,COc1ccc(-c2coc3cc(F)ccc3c2=O)cn1,2%
3,COc1ccc(/C=C/C(=O)c2ccc(O)cc2O)cc1,58%
4,O=c1c(-c2ccccc2)coc2ccccc12 [ISOFLAVONE],0%
5,N#Cc1ccc(-c2coc3cc(O)ccc3c2=O)cc1,16%
6,COc1ccc(-c2coc3ccc(Br)cc3c2=O)cc1,5%
7,O=c1c(-c2ccc(Cl)cc2)coc2cc(O)ccc12,54%
8,COc1ccc(-c2coc3ccc(C)cc3c2=O)cc1,7%
9,COc1ccc(-c2coc3ccc(O)cc3c2=O)cc1,28%
10,COc1ccc(-c2coc3cc(O)ccc3c2=S)cc1,4%
11,COc1ccc(-c2cnoc2-c2ccc(O)cc2O)cc1,15%
12,COc1ccc(-c2coc3cc(O)ccc3c2=O)cc1F,13%
13,COc1ccc(-c2coc3ccc(F)cc3c2=O)cc1,0%
14,COc1ccc(-c2c[nH]nc2-c2ccc(O)cc2O)cc1,40%
15,COc1ccc(-c2coc3cc(F)ccc3c2=O)cc1,0%
16,COc1ccc(-c2coc3ccccc3c2=O)cc1,0%
17,COc1ccc(-c2coc3cc(O)ccc3c2=O)cc1OC [CLADRIN],14%
18,COc1ccc(-c2coc3ccc(Cl)cc3c2=O)cc1,0%
19,COc1ccc(-c2coc3ccc(OC)cc3c2=O)cc1,0%
20,COc1ccc(-c2coc3cc(O)ccc3c2=O)cn1,0%
21,CC(C)(C)c1ccc(-c2coc3cc(O)ccc3c2=O)cc1,95%
